According to ChEMBL document CHEMBL1157914, “5,5'-substituted indirubin-3'-oxime derivatives as potent cyclin-dependent kinase inhibitors with anticancer activity” (J Med Chem, 2010):
≈ marks a conversion by molar mass, not a printed value. Calls of active or inactive are those of the source. The rule behind the calls is not given here.

Key:
[1] = target: Cyclin-dependent kinase 1/cyclin B1 (Homo sapiens) (UniProt P06493+P14635); assay: Inhibition of CDK1/cyclin B at 1 uM after 40 mins by lequid scintillation counting; type: protein-complex assay
Chain of Cyclin-dependent kinase 1/cyclin B1 (Homo sapiens) (P06493 whole entry, looked up): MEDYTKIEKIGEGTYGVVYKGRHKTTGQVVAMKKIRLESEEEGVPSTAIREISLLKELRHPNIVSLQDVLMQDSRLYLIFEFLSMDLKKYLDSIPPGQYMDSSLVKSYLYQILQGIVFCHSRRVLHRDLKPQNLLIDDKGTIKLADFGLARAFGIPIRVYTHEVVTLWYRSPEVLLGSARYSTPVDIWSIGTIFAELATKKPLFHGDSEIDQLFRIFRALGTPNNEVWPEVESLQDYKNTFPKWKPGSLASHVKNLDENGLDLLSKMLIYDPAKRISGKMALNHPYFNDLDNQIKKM
Chain of Cyclin-dependent kinase 1/cyclin B1 (Homo sapiens) (P14635 whole entry, looked up): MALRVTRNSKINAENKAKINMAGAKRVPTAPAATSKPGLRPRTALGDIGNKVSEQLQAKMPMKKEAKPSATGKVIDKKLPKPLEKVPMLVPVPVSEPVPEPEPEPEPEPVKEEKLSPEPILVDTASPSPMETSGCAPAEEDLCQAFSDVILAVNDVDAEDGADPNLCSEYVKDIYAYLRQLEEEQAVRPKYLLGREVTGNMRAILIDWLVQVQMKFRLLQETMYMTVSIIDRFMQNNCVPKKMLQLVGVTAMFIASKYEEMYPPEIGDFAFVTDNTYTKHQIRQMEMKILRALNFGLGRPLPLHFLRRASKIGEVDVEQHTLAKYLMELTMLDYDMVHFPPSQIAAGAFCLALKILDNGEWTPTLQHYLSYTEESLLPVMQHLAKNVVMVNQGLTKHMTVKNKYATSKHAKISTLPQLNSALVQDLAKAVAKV

[2] = Solubility of compound in 3 equimolar NaOH and 0.1 N NaHCO3 buffer; type: physicochemical
[3] = Cell cycle arrest in rat RK3E cells expressing k-ras assessed as accumulation at sub G0 phase at 1 uM after 24 hrs using propidium iodide stain by flow cytometry; type: functional, cell-based
[4] = Cell cycle arrest in rat RK3E cells expressing k-ras assessed as accumulation at S phase at 2.5 uM after 24 hrs using propidium iodide stain by flow cytometry; type: functional, cell-based
RK3E [5] = assay: Antitumor activity against rat RK3E cells expressing k-ras and GFP/Luc genes transplanted in Sprague-Dawley rat assessed as increase in apoptotic cells at 5 mg/kg, iv administered 5 days after tumor implantation for 5 times measured after 11 days by TUNEL assay relative to control; type: functional, organism-based; parameters: dose 5 mg/kg
[6] = Cell cycle arrest in rat RK3E cells expressing k-ras assessed as accumulation at S phase at 1 uM after 24 hrs using propidium iodide stain by flow cytometry; type: functional, cell-based
[7] = target: Inhibitor of nuclear factor kappa-B kinase subunit beta (Homo sapiens, UniProt O14920); assay: Inhibition of recombinant IKK-beta preincubated for 15 mins by HTRF assay
Chain of Inhibitor of nuclear factor kappa-B kinase subunit beta (O14920 whole entry): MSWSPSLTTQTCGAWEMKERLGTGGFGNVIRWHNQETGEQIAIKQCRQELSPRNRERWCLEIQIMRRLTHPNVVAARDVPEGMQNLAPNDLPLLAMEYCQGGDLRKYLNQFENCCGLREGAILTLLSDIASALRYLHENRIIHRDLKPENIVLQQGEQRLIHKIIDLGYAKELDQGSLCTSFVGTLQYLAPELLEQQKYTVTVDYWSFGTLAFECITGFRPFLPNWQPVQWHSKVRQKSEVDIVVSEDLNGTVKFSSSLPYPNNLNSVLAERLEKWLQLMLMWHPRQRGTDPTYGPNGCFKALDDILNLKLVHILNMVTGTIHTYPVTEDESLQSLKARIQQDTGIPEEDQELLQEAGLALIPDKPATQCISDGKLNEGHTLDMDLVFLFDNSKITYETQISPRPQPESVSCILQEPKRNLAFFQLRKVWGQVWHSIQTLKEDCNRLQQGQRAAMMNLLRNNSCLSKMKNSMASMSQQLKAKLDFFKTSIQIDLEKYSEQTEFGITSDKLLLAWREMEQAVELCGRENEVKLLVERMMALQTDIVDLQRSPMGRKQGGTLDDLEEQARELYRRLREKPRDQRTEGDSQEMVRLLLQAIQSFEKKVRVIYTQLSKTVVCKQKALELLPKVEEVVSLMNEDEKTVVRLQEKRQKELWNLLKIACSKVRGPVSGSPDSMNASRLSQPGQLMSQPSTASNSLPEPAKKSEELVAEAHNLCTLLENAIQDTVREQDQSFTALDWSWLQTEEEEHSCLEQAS

[8] = target: Cyclin-dependent kinase 2/cyclin E1 (Homo sapiens) (UniProt P24864+P24941); assay: Inhibition of CDK2/cyclin E as percent residual activity; type: protein-complex assay; parameters: Residual activity / inhibition: concentration or dose not given beside the values
[9] = target: T1, High affinity nerve growth factor receptor (Homo sapiens, UniProt P04629); assay: Inhibition of recombinant TrKa preincubated for 15 mins by HTRF assay
Target sequence in this assay (P04629 whole entry): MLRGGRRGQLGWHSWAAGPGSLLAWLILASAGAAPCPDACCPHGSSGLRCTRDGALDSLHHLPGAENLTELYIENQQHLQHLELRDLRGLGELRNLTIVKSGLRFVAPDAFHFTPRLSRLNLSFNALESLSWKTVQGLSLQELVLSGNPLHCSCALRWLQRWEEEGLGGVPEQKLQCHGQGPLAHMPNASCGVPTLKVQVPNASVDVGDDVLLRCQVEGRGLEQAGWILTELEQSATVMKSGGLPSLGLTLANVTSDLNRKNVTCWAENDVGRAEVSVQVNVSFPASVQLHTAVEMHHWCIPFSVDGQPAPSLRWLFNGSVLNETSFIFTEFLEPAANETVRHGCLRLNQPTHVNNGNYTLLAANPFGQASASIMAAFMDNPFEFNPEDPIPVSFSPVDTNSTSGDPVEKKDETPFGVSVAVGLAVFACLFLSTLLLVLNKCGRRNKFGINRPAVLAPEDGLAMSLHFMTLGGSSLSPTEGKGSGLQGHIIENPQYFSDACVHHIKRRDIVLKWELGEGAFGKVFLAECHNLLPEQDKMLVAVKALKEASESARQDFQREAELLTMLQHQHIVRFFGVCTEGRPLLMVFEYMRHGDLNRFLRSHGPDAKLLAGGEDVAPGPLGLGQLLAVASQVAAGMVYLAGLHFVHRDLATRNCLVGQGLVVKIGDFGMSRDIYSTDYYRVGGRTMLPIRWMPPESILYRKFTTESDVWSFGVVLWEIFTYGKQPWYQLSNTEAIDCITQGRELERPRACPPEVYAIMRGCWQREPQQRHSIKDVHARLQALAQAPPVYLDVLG

Rattus norvegicus = assay: Toxicity in rat RK3E cells expressing k-ras and GFP/Luc genes transplanted in Sprague-Dawley rat assessed as change in body weight at 5 mg/kg, iv administered 5 days after tumor implantation for 5 times measured after 48 hrs post dose; type: organism-based; parameters: dose 5 mg/kg, route intravenous; settings: in vivo
KB = assay: Antiproliferative activity against human KB cells after 3 days by SRB assay; type: functional, cell-based; settings: 72 h
[10] = Cell cycle arrest in rat RK3E cells expressing k-ras assessed as accumulation at G2/M phase at 2.5 uM after 24 hrs using propidium iodide stain by flow cytometry; type: functional, cell-based
[11] = Cell cycle arrest in rat RK3E cells expressing k-ras assessed as accumulation at G0/G1 phase at 1 uM after 24 hrs using propidium iodide stain by flow cytometry; type: functional, cell-based
[12] = Solubility of compound in 3 equimolar NaOH and distilled water; type: physicochemical; settings: buffer
RK3E [13] = assay: Antitumor activity against rat RK3E cells expressing k-ras and GFP/Luc genes transplanted in Sprague-Dawley rat assessed as decrease of PCNA expression at 5 mg/kg, iv administered 5 days after tumor implantation for 5 times measured after 11 days by immunohistochemical staining relative to control; type: functional, organism-based; parameters: dose 5 mg/kg
[14] = Cell cycle arrest in rat RK3E cells expressing k-ras assessed as accumulation at G2/M phase at 1 uM after 24 hrs using propidium iodide stain by flow cytometry; type: functional, cell-based
MCF7 = assay: Antiproliferative activity against human MCF7 cells after 3 days by SRB assay; type: functional, cell-based; settings: MCF7, 72 h
[15] = target: Cyclin-dependent kinase 2/cyclin E1 (Homo sapiens, UniProt P24941); assay: Inhibition of CDK2/cyclin E; type: protein-complex assay
[16] = target: T1, High affinity nerve growth factor receptor; assay: Inhibition of recombinant TrKa at 1 uM preincubated for 15 mins by HTRF assay
Target sequence in this assay (P04629 33-796 limits assumed): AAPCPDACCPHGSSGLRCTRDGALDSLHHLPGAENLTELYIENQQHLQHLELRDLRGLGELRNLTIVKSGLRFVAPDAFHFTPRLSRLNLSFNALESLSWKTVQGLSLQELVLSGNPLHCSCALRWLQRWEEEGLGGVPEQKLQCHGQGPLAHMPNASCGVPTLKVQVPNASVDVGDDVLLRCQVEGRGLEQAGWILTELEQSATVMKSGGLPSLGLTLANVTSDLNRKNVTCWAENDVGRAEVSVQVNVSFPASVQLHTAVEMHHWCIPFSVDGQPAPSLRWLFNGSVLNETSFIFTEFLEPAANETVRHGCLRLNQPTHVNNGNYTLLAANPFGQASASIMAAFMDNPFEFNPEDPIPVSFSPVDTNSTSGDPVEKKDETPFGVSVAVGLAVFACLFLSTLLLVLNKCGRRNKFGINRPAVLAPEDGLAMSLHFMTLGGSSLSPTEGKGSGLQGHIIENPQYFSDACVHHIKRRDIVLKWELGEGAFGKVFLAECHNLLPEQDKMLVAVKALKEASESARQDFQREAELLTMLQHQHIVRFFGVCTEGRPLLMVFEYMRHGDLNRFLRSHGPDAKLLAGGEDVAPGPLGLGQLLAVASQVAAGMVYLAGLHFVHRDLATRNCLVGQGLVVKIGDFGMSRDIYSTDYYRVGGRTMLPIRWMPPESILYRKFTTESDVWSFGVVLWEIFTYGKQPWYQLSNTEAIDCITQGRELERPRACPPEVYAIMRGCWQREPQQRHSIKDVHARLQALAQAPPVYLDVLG

[17] = Antitumor activity against rat RK3E cells expressing k-ras and GFP/Luc genes transplanted in Sprague-Dawley rat assessed as decrease in tumor volume at 5 mg/kg, iv administered 5 days after tumor implantation for 5 times measured after 48 hrs post dose relative to control; type: functional; parameters: scale not given: the % may be the effect or the level left
[18] = Aqueous solubility of compound in water; type: physicochemical; settings: buffer
RK3E [19] = assay: Antitumor activity against rat RK3E cells expressing k-ras and GFP/Luc genes transplanted in Sprague-Dawley rat assessed as decrease of tumor growth at 5 mg/kg, iv administered 5 days after tumor implantation for 5 times measured on day 10 by luciferin bioluminescence assay; type: functional, organism-based; parameters: dose 5 mg/kg
[20] = Cell cycle arrest in rat RK3E cells expressing k-ras assessed as accumulation at G0/G1 phase at 2.5 uM after 24 hrs using propidium iodide stain by flow cytometry; type: functional, cell-based
[21] = Cell cycle arrest in rat RK3E cells expressing k-ras assessed as accumulation at sub G0 phase at 2.5 uM after 24 hrs using propidium iodide stain by flow cytometry; type: functional, cell-based
[22] = Solubility of compound in 2 equimolar NaOH and distilled water; type: physicochemical; settings: buffer
[23] = target: Cyclin-dependent kinase 1/cyclin B1 (Homo sapiens, UniProt P06493); assay: Inhibition of CDK1/cyclin B after 40 mins by liquid scintillation counting; type: protein-complex assay
Chain of Cyclin-dependent kinase 1/cyclin B1 (P06493 whole entry): as the sequence (P06493 whole entry, looked up) above
Chain of Cyclin-dependent kinase 1/cyclin B1 (P14635 whole entry, further chain): as the sequence (P14635 whole entry, looked up) above

O=C1Nc2ccc([N+](=O)[O-])cc2/C1=C1/Nc2ccc(O)cc2/C1=N/O
inhibition [1]: Active
solubility [2]: 200 µg/mL (≈ 0.591 mM)
Activity [3]: 8.16%
Activity [4]: 9.66%
Activity (RK3E [5]): Active
Activity [6]: 7.96%
IC50 [7]: 10000 nM
Residual activity [8]: 90%
IC50 [9]: 4000 nM
Activity (Rattus norvegicus): Non-toxic
IC50 (KB): 1330 nM
Activity [10]: 5.67%
Activity [11]: 57.7%
solubility [12]: 3000 µg/mL (≈ 8.87 mM)
Activity (RK3E [13]): Active
Activity [14]: 8.16%
IC50 (MCF7): 1210 nM
IC50 [15]: 1.91 nM
inhibition [16]: 9%
Activity [17]: 84.3%
solubility [18]: 10 µg/mL (≈ 0.0296 mM)
Activity (RK3E [19]): Active
Activity [20]: 74.5%
Activity [21]: 5.59%
solubility [22]: 2700 µg/mL (≈ 7.98 mM)
IC50 [23]: 13 nM
